In PubChem BioAssay AID292 (DTP/NCI, 2004):
Values joined by “and” are separate entries in the source; they are usually repeats but may differ in a detail not shown here. Identical values can stand only once. Toxic doses and inconclusive results are not listed. Rule for the calls: active = survival T/C of 150% or more; inactive = T/C below 125% in these data.

Test system: B6C3F1 mice, ip Sarcoma M5076, median survival T/C
Test: NCI In Vivo Anticancer Drug Screen. Data for tumor model Sarcoma M5076 (intraperitoneal) in B6C3F1 mice
Details: endpoint: median survival time, schedule: Q04DX004 (ip), higher = longer survival
Method in brief: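 Mice carrying the transplanted tumour received compound treatment. Survival was recorded, and each value is the treated-group measurement divided by that of the vehicle-dosed control group.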

[1] = dose: 50.0 mg/kg/injection, vehicle: Klucel (hydroxypropylcellulose) (HPC)
[2] = dose: 100.0 mg/kg/injection, vehicle: Klucel (hydroxypropylcellulose) (HPC)
[3] = dose: 200.0 mg/kg/injection, vehicle: Klucel (hydroxypropylcellulose) (HPC)
[4] = dose: 400.0 mg/kg/injection, vehicle: Klucel (hydroxypropylcellulose) (HPC)
[5] = dose: 12.5 mg/kg/injection, vehicle: Klucel (hydroxypropylcellulose) (HPC)
[6] = dose: 25.0 mg/kg/injection, vehicle: Klucel (hydroxypropylcellulose) (HPC)
[7] = dose: 800.0 mg/kg/injection, vehicle: Klucel (hydroxypropylcellulose) (HPC)
[8] = dose: 50.0 mg/kg/injection, vehicle: saline with Tween-80
[9] = dose: 100.0 mg/kg/injection, vehicle: saline with Tween-80
[10] = dose: 200.0 mg/kg/injection, vehicle: saline with Tween-80
[11] = dose: 400.0 mg/kg/injection, vehicle: saline with Tween-80
[12] = dose: 800.0 mg/kg/injection, vehicle: saline with Tween-80
[13] = dose: 6.25 mg/kg/injection, vehicle: saline with Tween-80
[14] = dose: 12.5 mg/kg/injection, vehicle: saline with Tween-80
[15] = dose: 25.0 mg/kg/injection, vehicle: saline with Tween-80
[16] = dose: 37.5 mg/kg/injection, vehicle: saline with Tween-80
[17] = dose: 75.0 mg/kg/injection, vehicle: saline with Tween-80
[18] = dose: 150.0 mg/kg/injection, vehicle: saline with Tween-80
[19] = dose: 600.0 mg/kg/injection, vehicle: saline with Tween-80

Measured: T/C

C=C(OC)C(Nc1cc(OC)c(OC)cc1C(=O)OC1CC(O[C@@H]2C(=O)C(NC(=O)OC)=C3/C(=C\CSSSC)[C@]2(O)C#C/C=C\C#C[C@@H]3OC2OC(C)C(NOC3CC(O)C(SC)C(C)O3)C(O)C2OC2CC(OC)C(NCCC)CO2)OC(C)C1O)OC (some centres not stated)
active: dose: 0.32 micrograms/kg/injection, vehicle: saline + alcohol 152 % of control | dose: 1.28 micrograms/kg/injection, vehicle: saline + alcohol 156 % of control

C/C(=C\c1ccccc1)C1C(C#N)C(=O)NC(=O)C1C#N (configuration not stated)
inactive: [1] 100 % of control | [2] 113 % of control | [3] 106 % of control | [4] 106 % of control

C/C(=N\NC(=S)N1CCN(c2ccccn2)CC1)c1ccccn1
inactive: [5] 98 % of control | [6] 103 % of control | [1] 93 % of control

COc1ccc(CCN2C(=O)C(=O)N(c3ccc(Cl)c(Cl)c3)C2=O)cc1OC
inactive: [1] 99 % of control | [2] 98 % of control | [3] 94 % of control | [4] 89 % of control | [7] 93 % of control

CCOC1NC(=O)Oc2ccccc21 (configuration not stated)
inactive: [1] 107 % of control | [2] 100 % of control | [3] 99 % of control | [4] 121 % of control

Cc1cn(C2CC(F)C(CO)O2)c(=O)[nH]c1=O (configuration not stated)
inactive: dose: 7.5 mg/kg/injection, vehicle: suspension in saline 111 % of control | dose: 150.0 mg/kg/injection, vehicle: suspension in saline 101 % of control | dose: 300.0 mg/kg/injection, vehicle: suspension in saline 111 % of control | dose: 600.0 mg/kg/injection, vehicle: suspension in saline 117 % of control

COc1ccc(N2CCCSC2=S)cc1
inactive: dose: 31.25 mg/kg/injection, vehicle: saline + Tween-80 + alcohol 97 % of control | dose: 62.5 mg/kg/injection, vehicle: saline + Tween-80 + alcohol 91 % of control

N#CC1C(=O)NC(=S)NC1c1ccc(C2CC(=O)NC(=S)N2)cc1 (configuration not stated)
inactive: [8] 93 % of control | [9] 106 % of control | [10] 94 % of control | [11] 90 % of control | [12] 92 % of control

Cn1c(=O)c2nncnc2n(C)c1=O
inactive: [8] 94 % of control | [9] 96 % of control | [10] 94 % of control

CC1/C=C/C=C/CC/C=C/C=C/C=C/C=C/C(OC2OC(C)C(O)C(N)C2O)CC2OC(CC(O)C(O)CCC(O)CC(O)CC(O)CC(=O)OC(C)C(C)C1O)CC(O)C2C(=O)O (configuration not stated)
inactive: [13] 122 % of control | [14] 117 % of control | [15] 118 % of control and 122 % of control | [8] 96 % of control and 97 % of control | [9] 96 % of control and 107 % of control

COc1cc(C#N)c(NC(=S)N2CCN(C(=O)c3ccco3)CC2)cc1OC
inactive: [1] 98 % of control | [2] 111 % of control | [3] 103 % of control | [4] 90 % of control

C=C1c2cccc(O)c2C(O)=C2C(=O)[C@]3(O)C(O)=C(C(N)=O)C(=O)[C@@H](N(C)C)[C@@H]3[C@@H](O)[C@H]12
inactive: [5] 105 % of control | [6] 105 % of control | [1] 101 % of control | [2] 102 % of control

Cc1ccc(C(=O)[O][Hg][CH2]C2COC([CH2][Hg][O]C(=O)c3ccc(C)cc3)CO2)cc1 (configuration not stated)
inactive: [13] 99 % of control | [14] 88 % of control | [15] 88 % of control

Cc1ccc(Nc2nnc(CSc3ccc(Cl)cc3)s2)c(S(=O)(=O)O)c1
inactive: [16] 99 % of control | [17] 87 % of control | [18] 91 % of control

COc1ccc(/C=N/NC(=O)c2ccc(OCc3nc4ccccc4[nH]3)cc2)cc1
inactive: [15] 99 % of control | [8] 100 % of control | [9] 103 % of control | [10] 97 % of control | [11] 97 % of control

C/C(=N\Nc1cc(C)nc2ccc(C)cc12)c1cn(C)n(-c2ccccc2)c1=O
inactive: dose: 31.25 mg/kg/injection, vehicle: Klucel (hydroxypropylcellulose) (HPC) 86 % of control

CC[C@@H](C)[C@H]([C@H](CC(=O)N1CCC[C@@H]1[C@@H](OC)[C@H](C)C(=O)N[C@H](Cc1ccccc1)c1nccs1)OC)N(C)C(=O)[C@H](NC(=O)[C@@H](C(C)C)N(C)C)C(C)C
active: dose: 8.0 micrograms/kg/injection, vehicle: saline + alcohol 153 % of control | dose: 36.0 micrograms/kg/injection, vehicle: saline + alcohol 153 % of control

Nc1ccn(C2CC3[O][Sn]([c]4ccccc4)([c]4ccccc4)[O]CC3O2)c(=O)n1 (configuration not stated)
inactive: dose: 25.0 mg/kg/injection, vehicle: distilled water + Tween-80 100 % of control | dose: 50.0 mg/kg/injection, vehicle: distilled water + Tween-80 100 % of control | dose: 100.0 mg/kg/injection, vehicle: distilled water + Tween-80 105 % of control | dose: 200.0 mg/kg/injection, vehicle: distilled water + Tween-80 100 % of control | dose: 400.0 mg/kg/injection, vehicle: distilled water + Tween-80 95 % of control

Clc1cccc(N(C2=NCCS2)C2=NCCS2)c1
inactive: [1] 107 % of control | [2] 101 % of control | [3] 101 % of control | [4] 96 % of control | [7] 92 % of control

ClC1(Cl)Cc2ccccc21
inactive: [8] 103 % of control | [9] 114 % of control | [10] 92 % of control | [11] 87 % of control

C/C=C\C1OC1(C)c1cc(=O)c2c(C)cc3c(c2o1)C(=O)c1c(O)c(C2CC(C)(N(C)C)C(OC(C)=O)C(C)O2)cc(C2CC(N(C)C)C(O)C(C)O2)c1C3=O (configuration not stated)
inactive: dose: 0.19 mg/kg/injection, vehicle: saline + alcohol 105 % of control | dose: 0.38 mg/kg/injection, vehicle: saline + alcohol 110 % of control | dose: 0.75 mg/kg/injection, vehicle: saline + alcohol 120 % of control
active: dose: 3.0 mg/kg/injection, vehicle: saline + alcohol 156 % of control

CC[n+]1c([S-])nn(C)c1-c1cnccn1
inactive: [16] 103 % of control | [17] 107 % of control | [18] 96 % of control | dose: 300.0 mg/kg/injection, vehicle: saline with Tween-80 112 % of control | [19] 95 % of control

Cc1cc(O)c2c(c1O)C(=O)C13C(=C2O)C(=O)C2C(O)C1C1C(O)C3C(=O)C3=C(O)c4c(O)cc(C)c(O)c4C(=O)C321 (configuration not stated)
inactive: dose: 1.56 mg/kg/injection, vehicle: saline with Tween-80 118 % of control | dose: 3.12 mg/kg/injection, vehicle: saline with Tween-80 118 % of control | [13] 118 % of control | [14] 124 % of control

N#CC(=C1C=CC(=NO)C=C1)c1ccc(Cl)cc1
inactive: [19] 96 % of control

CCC(=O)N=c1sc(SCc2ccccc2)nn1C(=O)SC (tested in a mixture with another compound)
inactive: [6] 101 % of control | [1] 96 % of control | [2] 101 % of control | [3] 89 % of control | [4] 86 % of control

COc1cccc2c1C(=O)C1=C(C2=O)c2c(O)cc(CO)cc2C(O)C1O (configuration not stated)
inactive: [13] 100 % of control | [14] 106 % of control | [15] 92 % of control | [8] 101 % of control

NC12CC3CC(CC(C3)C1)C2
inactive: [15] 100 % of control | [8] 94 % of control

O=C1CN(CO)C(=O)N1CO
inactive: [6] 100 % of control | [1] 104 % of control | [2] 97 % of control | [3] 114 % of control | [4] 114 % of control

O=[N+]([O-])c1ccc(C=C2C=CN(CCO)C=C2)cc1
inactive: [15] 115 % of control | [8] 115 % of control | [9] 106 % of control

O=C(Nc1ccccc1CCl)Nc1ccccc1CCl
inactive: [8] 107 % of control | [9] 102 % of control and 110 % of control | [10] 109 % of control and 114 % of control | [12] 123 % of control

COc1ccccc1-n1cc[n+](C)c1/C=N/O
inactive: dose: 25.0 mg/kg/injection, vehicle: saline 101 % of control | dose: 50.0 mg/kg/injection, vehicle: saline 101 % of control
